Like-named read-outs stand apart in the source and are kept apart here.
Legend:
[1] = system: Hsp90 in HEPG2 lysate; details: for FP signal: raw
[2] = biological target: T1, Hsp90 in C. albicans (SC5314) lysate (Candida albicans, UniProt P46598); test: biochemical; type: binding; details: for FP signal: raw; for EC50: read-out: EC50
T1 construct: endogenous in cells; host or cells: C. albicans SC5314 whole-cell lysate

[3] = EC50 relative to GdA, HEPG2 lysate
[4] = HEPG2 lysate, log concentration 0.137354 (1.372 nM)
[5] = HEPG2 lysate, log concentration 0.61437 (4.115 nM)
[6] = HEPG2 lysate, log concentration 1.09153 (12.346 nM)
[7] = HEPG2 lysate, log concentration 1.56864 (37.037 nM)
[8] = HEPG2 lysate, log concentration 2.04576 (111.111 nM)
[9] = HEPG2 lysate, log concentration 2.52288 (333.333 nM)
[10] = HEPG2 lysate, log concentration 3 (1000 nM)
[11] = HEPG2 lysate, log concentration 3.47712 (3000 nM)
[12] = HEPG2 lysate, log concentration -0.340084 (0.457 nM)
[13] = EC50 relative to GdA, SC5314 lysate
[14] = SC5314 lysate, 0.457 nM compound
[15] = SC5314 lysate, 1.372 nM compound
[16] = SC5314 lysate, 4.115 nM compound
[17] = SC5314 lysate, 12.346 nM compound
[18] = SC5314 lysate, 37.037 nM compound
[19] = SC5314 lysate, 111.111 nM compound
[20] = SC5314 lysate, 333.333 nM compound
[21] = SC5314 lysate, 1000 nM compound
[22] = SC5314 lysate, 3000 nM compound

T1 sequence (P46598 whole entry): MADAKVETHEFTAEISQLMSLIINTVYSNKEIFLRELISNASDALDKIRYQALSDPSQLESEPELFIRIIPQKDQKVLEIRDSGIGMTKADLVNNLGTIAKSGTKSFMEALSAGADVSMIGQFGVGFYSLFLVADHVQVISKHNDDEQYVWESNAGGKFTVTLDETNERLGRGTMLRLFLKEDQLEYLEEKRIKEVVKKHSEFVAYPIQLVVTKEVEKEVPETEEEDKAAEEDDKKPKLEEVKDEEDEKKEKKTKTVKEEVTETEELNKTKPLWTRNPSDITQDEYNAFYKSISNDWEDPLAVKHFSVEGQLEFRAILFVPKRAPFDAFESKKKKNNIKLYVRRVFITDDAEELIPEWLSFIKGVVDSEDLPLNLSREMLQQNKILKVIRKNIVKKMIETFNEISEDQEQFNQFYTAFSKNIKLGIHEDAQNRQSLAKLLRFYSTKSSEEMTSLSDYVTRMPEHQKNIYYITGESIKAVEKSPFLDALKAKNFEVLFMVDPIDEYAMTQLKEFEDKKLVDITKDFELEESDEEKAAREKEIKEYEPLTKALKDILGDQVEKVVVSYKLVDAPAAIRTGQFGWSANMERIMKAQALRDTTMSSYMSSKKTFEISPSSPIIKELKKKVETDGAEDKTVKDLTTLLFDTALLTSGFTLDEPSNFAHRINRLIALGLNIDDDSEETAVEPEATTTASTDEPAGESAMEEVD

## COc1ccccc1CON=C1C=CC=CC2OC2CC(C)OC(=O)c2c(O)cc(O)c(Cl)c2C1 (mixture of isomers) [compound 226]
[1]; EC50 / EC50 of GdA in HepG2 lysate
  Ratio rel. GdA (HepG2): 32.872
[1]; [3]
  Ratio rel. GdA (HepG2): 32.872
[1]; [4]
  FP signal, Fxn Control: 0.9856
[1]; [5]
  FP signal, Fxn Control: 0.9952
[1]; [6]
  FP signal, Fxn Control: 0.9952
[1]; [7]
  FP signal, Fxn Control: 0.9809
[1]; [8]
  FP signal, Fxn Control: 0.9426
[1]; [9]
  FP signal, Fxn Control: 0.8517
[1]; [10]
  FP signal, Fxn Control: 0.445
[1]; [11]
  FP signal, Fxn Control: 0.2105
[1]; [12]
  FP signal, Fxn Control: 0.9713
[1]; HepG2 lysate, 0.457 nM
  FP signal (raw): 203
[1]; HepG2 lysate, 0.457 nM compound
  FP signal: 203
[1]; HepG2 lysate, 1.372 nM
  FP signal (raw): 206
[1]; HepG2 lysate, 1.372 nM compound
  FP signal: 206
[1]; HepG2 lysate, 4.115 nM
  FP signal (raw): 208
[1]; HepG2 lysate, 4.115 nM compound
  FP signal: 208
[1]; HepG2 lysate, 12.346 nM
  FP signal (raw): 208
[1]; HepG2 lysate, 12.346 nM compound
  FP signal: 208
[1]; HepG2 lysate, 37.037 nM
  FP signal (raw): 205
[1]; HepG2 lysate, 37.037 nM compound
  FP signal: 205
[1]; HepG2 lysate, 111.111 nM
  FP signal (raw): 197
[1]; HepG2 lysate, 111.111 nM compound
  FP signal: 197
[1]; HepG2 lysate, 333.333 nM
  FP signal (raw): 178
[1]; HepG2 lysate, 333.333 nM compound
  FP signal: 178
[1]; HepG2 lysate, 1000 nM
  FP signal (raw): 93
[1]; HepG2 lysate, 1000 nM compound
  FP signal: 93
[1]; HepG2 lysate, 3000 nM
  FP signal (raw): 44
[1]; HepG2 lysate, 3000 nM compound
  FP signal: 44
[1]; HepG2 lysate, oxime panel experiment 220817
  EC50: 729 nM
[2]; [13]
  Ratio re. GdA: 24.5326
[2]; SC5314 lysate, 0.457 nM
  FP signal (raw): 193
[2]; [14]
  FP signal relative to 0 nM: 0.9461
  FP signal: 193
[2]; SC5314 lysate, 1.372 nM
  FP signal (raw): 197
[2]; [15]
  FP signal relative to 0 nM: 0.9657
  FP signal: 197
[2]; SC5314 lysate, 4.115 nM
  FP signal (raw): 190
[2]; [16]
  FP signal relative to 0 nM: 0.9314
  FP signal: 190
[2]; SC5314 lysate, 12.346 nM
  FP signal (raw): 193
[2]; [17]
  FP signal relative to 0 nM: 0.9461
  FP signal: 193
[2]; SC5314 lysate, 37.037 nM
  FP signal (raw): 190
[2]; [18]
  FP signal relative to 0 nM: 0.9314
  FP signal: 190
[2]; SC5314 lysate, 111.111 nM
  FP signal (raw): 176
[2]; [19]
  FP signal relative to 0 nM: 0.8627
  FP signal: 176
[2]; SC5314 lysate, 333.333 nM
  FP signal (raw): 131
[2]; [20]
  FP signal relative to 0 nM: 0.6422
  FP signal: 131
[2]; SC5314 lysate, 1000 nM
  FP signal (raw): 57
[2]; [21]
  FP signal relative to 0 nM: 0.2794
  FP signal: 57
[2]; SC5314 lysate, 3000 nM
  FP signal (raw): 38
[2]; [22]
  FP signal relative to 0 nM: 0.1863
  FP signal: 38
[2]; SC5314 lysate, not normalized, oxime panel experiment 220817
  EC50: 417 nM
[2]; ratio of GdA-normalized EC50s, human over fungal lysate
  HepG2/SC5314: 1.34
[2]; ratio of GdA-relative EC50 ratios, HepG2 over SC5314
  HepG2/SC5314: 1.34

## CC1(C)CC(=O)c2c(C(F)(F)F)nn(-c3ccc(C(N)=O)c(N[C@H]4CC[C@H](OC(=O)CN)CC4)c3)c2C1 [SNX-5422]
[1]; [3]
  Rel. to GdA: 2.507
[1]; HEPG2 lysate
  EC50: 65.6 nM
[1]; [4]
  FP signal, Fxn Control: 0.9858
[1]; [5]
  FP signal, Fxn Control: 0.9717
[1]; [6]
  FP signal, Fxn Control: 0.8821
[1]; [7]
  FP signal, Fxn Control: 0.7028
[1]; [8]
  FP signal, Fxn Control: 0.4953
[1]; [9]
  FP signal, Fxn Control: 0.3632
[1]; [10]
  FP signal, Fxn Control: 0.25
[1]; [11]
  FP signal, Fxn Control: 0.217
[1]; [12]
  FP signal, Fxn Control: 0.9858
[1]; HepG2 lysate, 0.457 nM
  FP signal (raw): 209
[1]; HepG2 lysate, 1.372 nM
  FP signal (raw): 209
[1]; HepG2 lysate, 4.115 nM
  FP signal (raw): 206
[1]; HepG2 lysate, 12.346 nM
  FP signal (raw): 187
[1]; HepG2 lysate, 37.037 nM
  FP signal (raw): 149
[1]; HepG2 lysate, 111.111 nM
  FP signal (raw): 105
[1]; HepG2 lysate, 333.333 nM
  FP signal (raw): 77
[1]; HepG2 lysate, 1000 nM
  FP signal (raw): 53
[1]; HepG2 lysate, 3000 nM
  FP signal (raw): 46
[2]; EC50 HEPG2 / EC50 SC5314
  Hep/SC: 5.438
[2]; [13]
  Rel. to GdA: 0.6171
[2]; Hep/SC ratio relative to that of GdA
  Hep/Sc rel. Gda: 4.063
[2]; SC5314 lysate, 0.457 nM
  FP signal (raw): 205
[2]; SC5314 lysate, 1.372 nM
  FP signal (raw): 197
[2]; SC5314 lysate, 4.115 nM
  FP signal (raw): 177
[2]; SC5314 lysate, 12.346 nM
  FP signal (raw): 118
[2]; SC5314 lysate, 37.037 nM
  FP signal (raw): 60
[2]; SC5314 lysate, 111.111 nM
  FP signal (raw): 41
[2]; SC5314 lysate, 333.333 nM
  FP signal (raw): 35
[2]; SC5314 lysate, 1000 nM
  FP signal (raw): 33
[2]; SC5314 lysate, 3000 nM
  FP signal (raw): 34
[2]; SC5314 lysate
  EC50: 12.1 nM
